According to patent US20150291532A1, “AMORPHOUS FORM OF QUINOLINE DERIVATIVE, AND METHOD FOR PRODUCING SAME” (Eisai R&D Management Co., Ltd., priority 2012, published 2015):

How the values were obtained:
[1] = Evaluation of solubility: dissolved concentration by the Paddle method, HPLC; format: physicochemical; settings: approx. 40 mg in 100 mL fasting artificial intestinal juice pH 6.5, 37° C., 50 rpm; for Concentration of compound A at sampling time 5 minute: 5 min; for Concentration of compound A at sampling time 10 minute: 10 min; for Concentration of compound A at sampling time 20 minute: 20 min; for Concentration of compound A at sampling time 30 minute: 30 min; for Concentration of compound A at sampling time 45 minute: 45 min; for Concentration of compound A at sampling time 60 minute: 60 min
Method: The dissolved concentration of amorphous compound A obtained in Example 1 was measured by the Paddle method. Approximately 40 mg of amorphous compound A was loaded into an equipment for the elution test, and 500 μL of solution was sampled at 5, 10, 20, 30, 45 and 60 minutes each. The concentration of compound A in the solution was measured by HPLC. As a comparative control there was used B-form crystals of 4-(3-chloro-4-(cyclopropylaminocarbonyl)aminophenoxy)-7-methoxy-6-quinolinecarboxamide (see Patent Literature 2). Solvent: 100 mL of fasting artificial intestinal juice (buffer with pH 6.5, containing 29 mM NaH2PO4, 100 mM KCl, 7.5 mM lecithin, and 30 mM sodium taurocholate) Temperature: 37° C. Paddle rotational speed: 50 rpm Column: YMC-UltraHT C18 (product of YMC Inc., inner diameter: 2.0 mm, column length: 50 mm, particle size: 2 μm) Column temperature: 40° C. (using a column oven) Flow rate: 0.42 mL/min Mobile phase: Solution A and solution B were used for elution with the linear gradient shown in Table 1. Solution A H2O: CH3CN:HClO4*=990:10:1 (V/V/V) Solution B CH3CN:H2O:HClO4*=900:100:1 (V/V/V) (*: 70% aqueous solution) Injection volume: 10 μL Detection: Ultraviolet absorptiometer (measuring wavelength: 252 nm). Autosampler temperature: 10° C.

[2] = as above; format: physicochemical; settings: general statement of advantageous effect

Concentration of compound A at sampling time 5 minute [1]	Concentration of compound A at sampling time 10 minute [1]	Concentration of compound A at sampling time 20 minute [1]	Concentration of compound A at sampling time 30 minute [1]	Concentration of compound A at sampling time 45 minute [1]	Concentration of compound A at sampling time 60 minute [1]	Solubility in water [2]	Structure (SMILES)
4900 ng/mL	5360 ng/mL	5630 ng/mL	5520 ng/mL	5410 ng/mL	5310 ng/mL	excellent solubility in water	COc1cc2nccc(Oc3ccc(NC(=O)NC4CC4)c(Cl)c3)c2cc1C(N)=O [Amorphous A, 4-(3-chloro-4-(cyclopropylaminocarbonyl)aminophenoxy)-7-methoxy-6-quinolinecarboxamide]
810 ng/mL	870 ng/mL	930 ng/mL	940 ng/mL	980 ng/mL	1000 ng/mL		COc1cc2nccc(Oc3ccc(NC(=O)NC4CC4)c(Cl)c3)c2cc1C(N)=O [Crystalline B, 4-(3-chloro-4-(cyclopropylaminocarbonyl)aminophenoxy)-7-methoxy-6-quinolinecarboxamide, reference compound]
